In one experiment the test system is HDAC. Nature of the experiment: In vitro HDAC-inhibition assay (Fluor de Lys fluorescent substrate). It counts as biochemical. The following applies: HDAC enzyme source. Here is the method:
1) In Vitro HDAC-Inhibition Assay:
This assay measures a compound's ability to inhibit acetyl-lysine deacetylation in vitro and was used as both a primary screening method as well as for IC50 determinations of confirmed inhibitors. The assay is performed in vitro using an HDAC enzyme source (e.g. partially purified nuclear extract or immunopurified HDAC complexes) and a proprietary fluorescent substrate/developer system (HDAC Quantizyme Fluor de Lys Fluorescent Activity Assay, BIOMOL). The assay is run in 1,536-well Greiner white-bottom plates using the following volumes and order of addition:
Step 1: Enzyme (2.5 μL) source added to plate (from refrigerated container)
Step 2: Compounds (50 nL) added with pin transfer device
Step 3: Fluor de Lys (2.5 μL) substrate added, incubate at RT, 30 minutes
Step 4: Developer (5 μL) solution is added (containing TSA), to stop reaction
Step 5: Plate Reader—data collection
The deacetylated fluorophore is excited with 360 nm light and the emitted light (460 nm) is detected on an automated fluorometric plate reader (Aquest, Molecular Devices).

The next experiment relates to HDAC in cells. Nature of the experiment: Cellular HDAC inhibition (cellular histone hyperacetylation assays). It counts as cell-based. The following applies: cellular assay, cell line not stated. The procedure: 2) Cellular Histone Hyperacetylation Assays:
These two secondary assays evaluates a compound's ability to inhibit HDAC in cells by measuring cellular histone acetylation levels. The cytoblot facilitates quantitative EC50 information for cellular HDAC inhibition. Transformed cell lines (e.g. HeLa, A549, MCF-7) are cultured under standard media and culture conditions prior to plating.
Cells (approx. 2,500/well) are allowed to adhere 10-24 hours to wells of a 384-well Greiner PS assay plate in media containing 1-5% serum. Cells are treated with appropriate compound and specific concentrations for 0 to 24 hours. Cells are washed once with PBS (60 μL) and then fixed (95% ethanol, 5% acetic acid or 2% PFA) for 1 minute at RT (30 μL). Cells are blocked with 1% BSA for 1 hour and washed and stained with antibody (e.g. anti-Acetylated Histone H3, Upstate Biotechnology), followed by washing and incubation with an appropriate secondary antibody conjugated to HRP or fluorophore. For luminescence assays, signal is generated using Luminol substrate (Santa Cruz Biotechnology) and detected using an Aquest plate reader (Molecular Devices).
Cells (4×10^5/well) are plated into Corning 6-well dish and allowed to adhere overnight. Cells are treated with compound at appropriate concentration for 12-18 hours at 37° C. Cells are washed with PBS on ice. Cells are dislodged with rubber policeman and lysed in buffer containing 25 mM Tris, pH7.6; 150 mM NaCl, 25 mM MgCl2, 1% Tween-20, and nuclei collected by centrifugation (7500 g). Nuclei are washed once in 25 mM Tris, pH7.6; 10 mM EDTA, collected by centrifugation (7500 g). Supernatant is removed and histones are extracted using 0.4 M HCl. Samples are centrifuged at 14000 g and supernatants are precipitated in 1 ml cold acetone. The histone pellet is dissolved in water and histones are separated and analyzed by SDS-PAGE Coomassie and immunoblotting (anti-acetylated histone antibodies, Upstate Biotechnology) using standard techniques.

The structures appear in SMILES notation.

`CC(=O)SCC(=O)c1ccc(NS(=O)(=O)c2ccc(OCCCN(C)C)cc2)nc1` [Example 1, Thioacetic acid S-(2-{6-[4-(3-dimethylamino-propoxy)-benzenesulfonylamino]-pyridin-3-yl}-2-oxo-ethyl)ester]: the IC50 in the experiment on HDAC and in the experiment on HDAC in cells was less than 1000 nM throughout.

Turning to `CC(=O)SCC(=O)c1ccc(NS(=O)(=O)c2ccc(OCCN(C)C)cc2)nc1` [Example 2, Thioacetic acid S-(2-{6-[4-(2-dimethylamino-ethoxy)-benzenesulfonylamino]-pyridin-3-yl}-2-oxo-ethyl) ester], the IC50 in the experiment on HDAC and in the experiment with HDAC in cells was less than 1000 nM each time.

For the molecule `CC(=O)SCC(=O)c1ccc(NS(=O)(=O)c2ccc(OCC(C)(C)CN(C)C)cc2)nc1` [Example 3, Thioacetic acid S-(2-{6-[4-(3-dimethylamino-2,2-dimethyl-propoxy)-benzenesulfonylamino]-pyridin-3-yl}-2-oxo-ethyl) ester], the IC50 – broadly, the concentration that gives 50% inhibition – with HDAC in cells was less than 1000 nM.

As for `CC(=O)SCC(=O)c1ccc(NS(=O)(=O)c2ccc(OCCCCN(C)C)cc2)nc1` [Example 4, Thioacetic acid S-(2-{6-[4-(4-dimethylamino-butoxy)-benzenesulfonylamino]-pyridin-3-yl}-2-oxo-ethyl) ester], the IC50 with HDAC and in the experiment with HDAC in cells was less than 1000 nM in each case.

(Values after US20070135438A1, “INHIBITORS OF HISTONE DEACETYLASE FOR THE TREATMENT OF DISEASE” (KALYPSYS, INC., priority 2005, published 2007).)
